Data taken from BigSolDB 2.1.

Settings: in water

SMILES: O=[N+]([O-])c1ccc(/C=C/c2ccc([N+](=O)[O-])cc2S(=O)(=O)[O-])c(S(=O)(=O)[O-])c1.[Na+].[Na+]
- solubility (mole fraction) (284.85 K): 0.0013
- solubility (mole fraction) (290.35 K): 0.0017
- solubility (mole fraction) (293.05 K): 0.00197
- solubility (mole fraction) (296.45 K): 0.00228
- solubility (mole fraction) (301.45 K): 0.00302
- solubility (mole fraction) (304.55 K): 0.00353
- solubility (mole fraction) (307.75 K): 0.00394
- solubility (mole fraction) (309.85 K): 0.00434
- solubility (mole fraction) (312.05 K): 0.00498
- solubility (mole fraction) (316.25 K): 0.00595
- solubility (mole fraction) (319.25 K): 0.00674
- solubility (mole fraction) (321.95 K): 0.00756
